# According to patent US6875451B2, “Compositions and methods for the treatment of primary and metastatic neoplastic diseases using arsenic compounds” (PolaRx Biopharmaceuticals Inc., priority 1997, dated 2005):
# What was measured:
# Format in all cases: cell-based
# M14 = test: SRB growth assay, 2 days exposure, melanoma
# Experimental: (§1) Arsenic trioxide (1 mg/ml, 10 mg/ampoule, manufactured by Taylor Pharmaceuticals, Decatur, Ill.) was tested at five concentrations each at 10-fold dilutions, i.e., 10^−5, 10^−6, 10^−7, 10^−8 and 10^−9 μg/ml.
# (§2) The in vitro tests were performed by incubating the test cells in the presence of the indicated concentration of arsenic trioxide under standard culture conditions for a designated period of time, which is followed by a sulforhodamine B (SRB) protein assay to estimate cell viability or growth. The cell lines are organized into subpanels according to the origin of the cell lines, e.g., leukemia, breast cancer, etc. A description of the cell lines and method of testing is described in Monk et al. (1997, Anticancer Drug Des. 12:533-41) and Weinstein et al., (1997, Science 275:343-9), which are incorporated herein in their entirety.
# (§3) The measurement of an effect is expressed in Percentage Growth (PG). The measured effect of the compound on a cell line is calculated according to one or the other of the following two expressions: If (Mean ODtest−Mean ODzero)≧0. then PG=100×(Mean ODtest−Mean ODzero)/(Mean ODctrl−Mean ODzero) If (Mean ODtest−Mean ODzero)<0. then PG=100×(Mean ODtest−Mean ODzero)/(Mean ODzero where: • Mean ODzero=the average of optical density measurements of SRB-derived color just before exposure of cells to the test compounds; • Mean ODtest=the average of optical density measurements of SRB-derived color after exposure of cells to the test compound for a designated period of time; and • Mean ODctrl=the average of optical density measurements of SRB-derived color after with no exposure of cells to the test compound for a designated period of time
# (§4) The first two columns describe the subpanel (e.g., leukemia) and cell line (e.g., CCRF-CEM) involved. The next two columns list the Mean ODzero and Mean ODctrl; the next five columns list the Mean ODtest for each of five different concentrations. Each concentration is expressed as the log10 (molar or μg/ml). The next five columns list the calculated PGs for each concentration. The response parameters GI50, TGI and LC50 are interpolated values representing the concentrations at which the PG is +50, 0, and −50, respectively. Sometimes these response parameters cannot be obtained by interpolation. If, for instance, all of the PGs in a given row exceed +50, then none of the three parameters can be obtained by interpolation. In such a case, the value given for each response parameter is the highest concentration tested and is preceded by a “>” sign. This practice is extended similarly to the other possible situations where a response parameter cannot be obtained by interpolation.
# (§5) In the first set, the cells from 56 different cancer cell lines were exposed to five concentrations of arsenic trioxide continuously for two days prior to performing the SRB assay. In the second set, the cells from 50 different cell lines (a subset of the first 56 cell lines, plus the renal cancer cell line 786-0) were exposed continuously for six days prior to the SRB assay.
# UACC-62 = test: SRB growth assay, 2 days exposure, melanoma
# Experimental: as §1, §2, §3, §4, §5
# SK-MEL-5 = test: SRB growth assay, 2 days exposure, melanoma
# Experimental: as §1, §2, §3, §4, §5
# MALME-3M = test: SRB growth assay, 2 days exposure, melanoma
# Experimental: as §1, §2, §3, §4, §5
# UACC-257 = test: SRB growth assay, 2 days exposure, melanoma
# Experimental: as §1, §2, §3, §4, §5
# SK-MEL-2 = test: SRB growth assay, 2 days exposure, melanoma
# Experimental: as §1, §2, §3, §4, §5
# LOX IMVI = test: SRB growth assay, 2 days exposure, melanoma
# Experimental: as §1, §2, §3, §4, §5
# SK-MEL-28 = test: SRB growth assay, 2 days exposure, melanoma
# Experimental: as §1, §2, §3, §4, §5
# HCT-15 = test: SRB growth assay, 6 days exposure, colon cancer; settings: HCT-15, 6 days
# Experimental: as §1, §2, §3, §4, §5
# SW-620 = test: SRB growth assay, 6 days exposure, colon cancer; settings: SW-620, 6 days
# Experimental: as §1, §2, §3, §4, §5
# COLO 205 = test: SRB growth assay, 6 days exposure, colon cancer; settings: COLO 205, 6 days
# Experimental: as §1, §2, §3, §4, §5
# [1] = read-out: LC50 (the source's name)
substance,measurement,setting,value
arsenic trioxide,TGI,M14,>0.0126 ng/mL
same,Percent Growth,M14; log10 conc −4.9,3%
same,Percent Growth,M14; log10 conc −5.9,87%
same,Percent Growth,M14; log10 conc −6.9,96%
same,Percent Growth,M14; log10 conc −7.9,105%
same,Percent Growth,M14; log10 conc −8.9,98%
same,TGI,UACC-62,>0.0126 ng/mL
same,Percent Growth,UACC-62; log10 conc −4.9,6%
same,Percent Growth,UACC-62; log10 conc −5.9,96%
same,Percent Growth,UACC-62; log10 conc −6.9,103%
same,Percent Growth,UACC-62; log10 conc −7.9,103%
same,Percent Growth,UACC-62; log10 conc −8.9,104%
same,TGI,SK-MEL-5,>0.0126 ng/mL
same,Percent Growth,SK-MEL-5; log10 conc −4.9,0%
same,Percent Growth,SK-MEL-5; log10 conc −5.9,78%
same,Percent Growth,SK-MEL-5; log10 conc −6.9,95%
same,Percent Growth,SK-MEL-5; log10 conc −7.9,97%
same,Percent Growth,SK-MEL-5; log10 conc −8.9,96%
same,TGI,MALME-3M,0.00602 ng/mL
same,Percent Growth,MALME-3M; log10 conc −4.9,−42%
same,Percent Growth,MALME-3M; log10 conc −5.9,90%
same,Percent Growth,MALME-3M; log10 conc −6.9,102%
same,Percent Growth,MALME-3M; log10 conc −7.9,123%
same,Percent Growth,MALME-3M; log10 conc −8.9,138%
same,TGI,UACC-257,>0.0126 ng/mL
same,Percent Growth,UACC-257; log10 conc −4.9,40%
same,Percent Growth,UACC-257; log10 conc −5.9,88%
same,Percent Growth,UACC-257; log10 conc −6.9,104%
same,Percent Growth,UACC-257; log10 conc −7.9,97%
same,Percent Growth,UACC-257; log10 conc −8.9,101%
same,TGI,SK-MEL-2,0.00881 ng/mL
same,Percent Growth,SK-MEL-2; log10 conc −4.9,−17%
same,Percent Growth,SK-MEL-2; log10 conc −5.9,91%
same,Percent Growth,SK-MEL-2; log10 conc −6.9,110%
same,Percent Growth,SK-MEL-2; log10 conc −7.9,103%
same,Percent Growth,SK-MEL-2; log10 conc −8.9,113%
same,TGI,LOX IMVI,>0.0126 ng/mL
same,Percent Growth,LOX IMVI; log10 conc −4.9,13%
same,Percent Growth,LOX IMVI; log10 conc −5.9,73%
same,Percent Growth,LOX IMVI; log10 conc −6.9,71%
same,Percent Growth,LOX IMVI; log10 conc −7.9,88%
same,Percent Growth,LOX IMVI; log10 conc −8.9,89%
same,TGI,SK-MEL-28,>0.0126 ng/mL
same,Percent Growth,SK-MEL-28; log10 conc −4.9,6%
same,Percent Growth,SK-MEL-28; log10 conc −5.9,94%
same,Percent Growth,SK-MEL-28; log10 conc −6.9,101%
same,Percent Growth,SK-MEL-28; log10 conc −7.9,103%
same,Percent Growth,SK-MEL-28; log10 conc −8.9,100%
same,TGI,HCT-15,>1.26E−05
same,Mean Optical Densities,HCT-15; Log 10 Concentration −4.9,0.404
same,Percent Growth,HCT-15; Log 10 Concentration −4.9,10%
same,Mean Optical Densities,HCT-15; Log 10 Concentration −5.9,3.432
same,Percent Growth,HCT-15; Log 10 Concentration −5.9,89%
same,Mean Optical Densities,HCT-15; Log 10 Concentration −6.9,4.227
same,Percent Growth,HCT-15; Log 10 Concentration −6.9,110%
same,Mean Optical Densities,HCT-15; Log 10 Concentration −7.9,3.921
same,Percent Growth,HCT-15; Log 10 Concentration −7.9,102%
same,Mean Optical Densities,HCT-15; Log 10 Concentration −8.9,3.965
same,Percent Growth,HCT-15; Log 10 Concentration −8.9,103%
same,CC50,HCT-15; [1],> 12.6 µM
same,TGI,SW-620,3.43E−06
same,Mean Optical Densities,SW-620; Log 10 Concentration −4.9,0.007
same,Percent Growth,SW-620; Log 10 Concentration −4.9,−72%
same,Mean Optical Densities,SW-620; Log 10 Concentration −5.9,1.475
same,Percent Growth,SW-620; Log 10 Concentration −5.9,55%
same,Mean Optical Densities,SW-620; Log 10 Concentration −6.9,2.337
same,Percent Growth,SW-620; Log 10 Concentration −6.9,88%
same,Mean Optical Densities,SW-620; Log 10 Concentration −7.9,2.308
same,Percent Growth,SW-620; Log 10 Concentration −7.9,87%
same,Mean Optical Densities,SW-620; Log 10 Concentration −8.9,2.613
same,Percent Growth,SW-620; Log 10 Concentration −8.9,99%
same,TGI,COLO 205,>1.26E−05
same,Mean Optical Densities,COLO 205; Log 10 Concentration −4.9,0.024
same,Percent Growth,COLO 205; Log 10 Concentration −4.9,0%
same,Mean Optical Densities,COLO 205; Log 10 Concentration −5.9,1.404
same,Percent Growth,COLO 205; Log 10 Concentration −5.9,59%
same,Mean Optical Densities,COLO 205; Log 10 Concentration −6.9,2.283
same,Percent Growth,COLO 205; Log 10 Concentration −6.9,97%
same,Mean Optical Densities,COLO 205; Log 10 Concentration −7.9,2.026
same,Percent Growth,COLO 205; Log 10 Concentration −7.9,86%
same,Mean Optical Densities,COLO 205; Log 10 Concentration −8.9,2.308
same,Percent Growth,COLO 205; Log 10 Concentration −8.9,98%
same,CC50,COLO 205; [1],> 12.6 µM
